The values that follow come from the SangsterLogP compilation.

The structures appear in SMILES notation.

The data set in a line: method code SF-AS, from DOI: 10.1016/s0006-291x(89)80063-4, PMID: 2916990. Conditions: pH 7.5.
Regarding `O=c1ccn([C@H]2C=C[C@@H](CO)O2)c(=O)[nH]1`, the logD was -1.07.

In the case of `O=c1ccn([C@H]2C[C@H](F)[C@@H](CO)O2)c(=O)[nH]1`, the pH-dependent lipophilicity (logD) was -0.49.

In turn, `[N-]=[N+]=N[C@@H]1[C@H](N=[N+]=[N-])[C@@H](CO)O[C@H]1n1cnc2c(N)ncnc21` registered a logD of 0.8.

Regarding `O=c1[nH]c(=O)n([C@H]2C[C@H](F)[C@@H](CO)O2)cc1Cl`, the logD is -0.17.

Turning to `O=c1ccn(C2CCC(CO)O2)c(=O)[nH]1` (stereo unspecified), the logD is -0.89.

`[N-]=[N+]=N[C@H]1C[C@H](n2cnc3c(=O)[nH]c(N)nc32)O[C@@H]1CO` registered a logD of -0.33.

As to `O=c1[nH]c(=O)n([C@H]2CC[C@@H](CO)O2)cc1Br`, the logD was -0.99.

As to `O=c1ccn([C@H]2C[C@H](O)[C@@H](CO)O2)c(=O)[nH]1`, the logD was -1.51.

`Nc1ncnc2c1ncn2[C@H]1C=C[C@@H](CO)O1` displayed a logD of -0.36.

As to `Nc1nc2c(ncn2[C@H]2C[C@H](F)[C@@H](CO)O2)c(=O)[nH]1`, the logD is -0.66.

Take `Nc1nc(N)c2ncn([C@H]3CC(F)[C@@H](CO)O3)c2n1` (stereo partly specified): the logD amounted to 0.05.

In turn, `[N-]=[N+]=N[C@H]1C[C@H](n2cnc3c(N)ncnc32)O[C@@H]1CO` displayed a logD of 0.35.

`O=c1[nH]c(=O)n([C@H]2C[C@H](F)[C@@H](CO)O2)cc1Br` yielded a logD of -0.04.

`Nc1nc2c(ncn2[C@H]2C=C[C@@H](CO)O2)c(=O)[nH]1` yielded a logD of -1.21.

In turn, `[N-]=[N+]=N[C@H]1C[C@H](n2ccc(N)nc2=O)O[C@@H]1CO` came in with a logD of -0.64.

`Nc1nc2c(ncn2[C@H]2CC[C@@H](CO)O2)c(=O)[nH]1` had a logD of -1.01.

Molecule `Nc1ncnc2c1ncn2[C@H]1C[C@H](F)[C@@H](CO)O1` registered a logD of 0.08.

With `Nc1nc(N)c2ncn([C@H]3C[C@H](O)[C@@H](CO)O3)c2n1`, the logD was -0.52.

`O=c1[nH]c(=O)n([C@H]2CC[C@@H](CO)O2)cc1I` yielded a logD of -0.61.

In turn, `O=c1[nH]c(=O)n([C@H]2CC[C@@H](CO)O2)cc1Cl` yielded a logD of -1.11.

For the molecule `[N-]=[N+]=N[C@H]1C[C@H](n2cnc3c(N)nc(N)nc32)O[C@@H]1CO`, the logD was determined as 0.24.

As usually defined, the logD is the decadic logarithm of the distribution of all forms, ionised or not, between an organic phase and buffer at a given pH.
